# In patent US7666882B2, “Anthranilamide insecticides” (E.I. du Pont de Nemours and Company, priority 2002, dated 2010):
# Tested on: potato leafhopper (Empoasca fabae Harris)
# Test: Test D: control of potato leafhopper through contact and/or systemic means on Longio bean plant
# Assay type: in vivo
# Conditions: sprayed at 250 ppm, adults post-infested, 6 days, 19-21° C.
# Method: Test compounds were formulated using a solution containing 10% acetone, 90% water and 300 ppm X-77® Spreader Lo-Foam Formula non-ionic surfactant containing alkylarylpolyoxyethylene, free fatty acids, glycols and isopropanol (Loveland Industries, Inc.). The formulated compounds were applied in 1 mL of liquid through a SUJ2 atomizer nozzle with ⅛ JJ custom body (Spraying Systems Co.) positioned 1.27 cm (0.5 inches) above the top of each test unit. All experimental compounds in this screen were sprayed at 250 ppm, replicated three times. After spraying of the formulated test compound, each test unit was allowed to dry for 1 hour and then a black, screened cap was placed on top. The test units were held for 6 days in a growth chamber at 19-21° C. and 50-70% relative humidity. Each test unit was then visually assessed for insect mortality.
# For evaluating control of potato leafhopper (Empoasca fabae Harris) through contact and/or systemic means, the test unit consisted of a small open container with a 5-6 day old Longio bean plant (primary leaves emerged) inside. White sand was added to the top of the soil and one of the primary leaves was excised prior to application. Test compounds were formulated and sprayed at 250 ppm and replicated three times as described for Test C. […] Each test unit was then visually assessed for insect mortality.
structure (smiles),measurement,value
CNC(=O)c1cc(Cl)cc(Cl)c1NC(=O)c1cc(OCC#N)nn1-c1ncccc1Cl [Compound 11],insect mortality,at least 80%
